The structures appear in SMILES notation. Converted amounts (≈) assume the structure as drawn.

Data on one molecule can be found in US11512079B2, “Heterocycle substituted pyridine derivative antifungal agents” (Amplyx Pharmaceuticals, Inc., priority 2017, dated 2022).

The conditions of data set [1]: mouse, in vivo; cited from earlier work.
In data set [2] the test system is C. neoformans H99. Description: Synergy with FLC, standard microtiter checkerboard dilution. The format is cell-based, Cryptococcus neoformans. The note with it: synergy = FICI <0.5, MIC read at 50% inhibition. The procedure:
Gwt1 inhibitors are synergistic with FLC. […] Importantly, no antagonism was observed.
(§1) Antifungal susceptibility testing. To establish antimicrobial activity, broth microdilution susceptibility testing was performed according to Clinical and Laboratory Standards Institute (CLSI) guidelines M27-A3 for yeasts and M38-A2 for molds. Compound 2 and analogs were first diluted in DMSO to obtain intermediate dilutions. These were further diluted in microtiter plates to obtain a final concentration of 2 to 0.002 μg/mL. 1 μl of DMSO was added to “No drug” control wells. The solutions were mixed on a plate shaker for 10 mins and plates incubated at 35° C. for 40 to 48 h (C. albicans, A. fumigatus) and 72 h (C. neoformans). The minimum concentration that led to 50% reduction in fungal growth as compared to the control (with the aid of a reading mirror) was determined as the minimum inhibitory concentration (MIC) for C. albicans and C. neoformans. The minimum concentration that led to shortening of hyphae as compared to hyphal growth in DMSO control wells was determined as the minimum effective concentration (MEC) for A. fumigatus (as read for echinocandins). The use of the MIC and MEC endpoints for Compound 2 against yeasts and molds, respectively has been described previously.

A further data set concerns strains of C. albicans. The note with it: cited from earlier work.
A further data set concerns C. gattii WM276. Briefly: Antifungal susceptibility testing, CLSI broth microdilution (Example 496/497). Type of data set: cell-based, Cryptococcus gattii. To be noted: 50% reduction in fungal growth.
Excerpt: (§2) Isolates tested. C. neoformans strains H99, DUMC 118.00, DUMC 158.03 and C. gattii strains R272, and RSA-MW-3515 were obtained from Duke University. C. albicans 90028, A. fumigatus MYA3626, C. neoformans 14116, C. neoformans 76484 and the pathogenic Cryptococcus reference strains panel (ATCC MP-11) were obtained from American Type Culture Collection (ATCC, Manassas, Va., USA). The MP-11 panel consists of strains representing eight molecular types and three subtypes of C. neoformans and C. gattii.
as §1
For orientation: Dilution methods test growth across graded concentrations, often in twofold steps.

In data set [3] the test system is Candida tropicalis strains. The note with it: cited from earlier work.
The subject of data set [4] is C. neoformans H99. Briefly: Antifungal susceptibility testing, CLSI broth microdilution (Example 496/497). Type of data set: cell-based, Cryptococcus neoformans. The note with it: 50% reduction in fungal growth, 72 h, 35° C.
Excerpt: as §2, §1

A further data set deals with C. albicans 90028. The data set is described as above. Type of data set: cell-based, Candida albicans. The note with it: MIC, 50% reduction in growth, 40 to 48 h.
Excerpt: as §2, §1

Data set [5] relates to strains of C. neoformans and C. gattii. Briefly: Activity vs Cryptococcus, summary over the strains tested. Type of data set: cell-based, Cryptococcus neoformans and Cryptococcus gattii. To be noted: panel of 18 isolates of C. neoformans and C. gattii.
Excerpt: The activity of Gwt1 inhibitors against susceptible and FLC non-susceptible/resistant strains.
as §2
Antifungal susceptibility testing. To establish antimicrobial activity, broth microdilution susceptibility testing was performed according to Clinical and Laboratory Standards Institute (CLSI) guidelines M27-A3 for yeasts and M38-A2 for molds. Compound 2 and analogs were first diluted in DMSO to obtain intermediate dilutions. These were further diluted in microtiter plates to obtain a final concentration of 2 to 0.002 μg/mL. 1 μl of DMSO was added to “No drug” control wells. The solutions were mixed on a plate shaker for 10 mins and plates incubated at 35° C. for 40 to 48 h (C. albicans, A. fumigatus) and 72 h (C. neoformans). The minimum concentration that led to 50% reduction in fungal growth as compared to the control (with the aid of a reading mirror) was determined as the minimum inhibitory concentration (MIC) for C. albicans and C. neoformans.

The test system of another data set is A. fumigatus MYA3626. Briefly: Antifungal susceptibility testing, CLSI broth microdilution (Example 496/497). Type of data set: cell-based, Aspergillus fumigatus. To be noted: MEC, shortening of hyphae, 40 to 48 h.
Excerpt: as §2, §1

For orientation: MIC90 means an inhibitory concentration at the 90% level, which refers to growth in some studies and to a panel of isolates in others. Higher therefore signals lower susceptibility. Consider `Nc1ncccc1-c1cc(Cc2ccc(COc3ccccn3)cc2)no1` [Compound 2], for which, in [1], the half-life in mice is 1.40 to 2.75 h. In addition, the “FICI in combination with FLC” value in the data set with C. neoformans H99 [2] is given as 0.37. For the same molecule, the “strains with synergy with FLC” value in the data set with strains of C. albicans is on record as 2 of 20; in [3] it was 9 of 10. Moreover, the “MIC C. gattii WM276” value with C. gattii WM276 is 0.125 µg/mL (≈ 0.349 µM). Besides, the “MIC C. neoformans H99” value in the data set on C. neoformans H99 [4] came to 0.25 µg/mL (≈ 0.698 µM). The “MIC or MEC C. albicans 90028” value against C. albicans 90028 worked out at 0.008 µg/mL (≈ 0.0223 µM). In data set [5], this molecule displayed an MIC90 of 0.5 µg/mL (≈ 1.4 µM). The “MIC or MEC A. fumigatus MYA3626” value in the data set on A. fumigatus MYA3626 worked out at 0.008 µg/mL (≈ 0.0223 µM).
